Laboratory results as given in patent US20240165112A1, “THERAPY FOR THE TREATMENT OF CANCER” (Bristol-Myers Squibb Company, priority 2022, published 2024).

Columns and labels:
4T1.2 cell line = test: 2D cell line viability assay (cell confluence); format: cell-based, murine; conditions: Mus musculus, 4T1.2, 96 h
Text: (§1) FIGS. 4A-4E illustrate the effects of Compound 1 on the Potency of Paclitaxel in a 2D Cell Line Viability Assay. […] Data points indicate mean and Standard Deviation of 2 biological replicates. Graphs are representative of at least 2 independent experiments. […] Abbreviations: DMSO, dimethylsulfoxide.

EMT6 cell line = test: 2D cell line viability assay (cell confluence); format: cell-based, murine; conditions: Mus musculus, EMT6, 96 h, 4 days
Text: as §1

HT29 cell line = test: 2D cell line viability assay (cell confluence); format: cell-based; conditions: Homo sapiens, HT-29, 96 h, 4 days
Text: as §1

A549 cell line = test: 2D cell line viability assay (cell confluence); format: cell-based; conditions: Homo sapiens, A549, 96 h, 4 days
Text: as §1

NCI-H460 cell line = test: 2D cell line viability assay (cell confluence); format: cell-based; conditions: Homo sapiens, NCI-H460, 96 h, 4 days
Text: as §1

[1] = tested on: PAXF1657 organoid, pancreatic cancer; test: 3D clonogenic assay in patient derived organoids; format: cell-based, human
Protocol: (§2) Five tumor cell lines (4T1.2, A549, EMT6, NCI-H460, and HT29) were treated with a range of paclitaxel or 5-FU concentrations in the presence of dimethlylsulfoxide (DMSO), 5 μM Compound 1, or 20 μM Compound 1. Cells were imaged 4 days after treatment and percent confluence was assessed by image quantification. EC50 values for cell confluence were used to assess chemotherapy potency. Eleven patient-derived tumor organoids (MAXFTN449, MAXFTN2990, PAXF1657, PAXF2131, CXF1256, CXF2129, CXF2061, LXFE2478, LXFE690, LXFA677, LXFA644) were seeded in a 3D matrix and treated with a range of paclitaxel, 5-FU, SN38, Gemcitabine, oxaliplatin, and carboplatin concentrations in the presence of DMSO, 5 μM Compound 1, or 20 μM Compound 1. After 8 to 13 days in culture, colonies were stained, imaged, and counted. A dose response curve was generated for chemotherapy alone or chemotherapy in combination with 5 or 20 μM Compound 1. Combination activity was defined as a percentage of the area under the chemotherapy dose response curve (cAUC) for Compound 1 combination groups compared to the cAUC of chemotherapy alone.
(§3) For combination experiments, working stock solutions of all compounds were prepared in DMSO at concentrations of 660-fold the highest test concentration used and stored at −20° C. Platin compounds were prepared freshly on each treatment day. On each day of an experiment, an aliquot of the working stock solutions was used and stored at room temperature prior to and during treatment. First, 1:2 dilutions of 660-fold concentrated working stocks were prepared in DMSO (in case of monotherapy controls), or equal amounts of the compound working stocks were mixed (in case of drug combinations). Then, different dilutions of these 330-fold concentrated solutions were prepared in DMSO to give an 8×2 matrix combination layout with conditions. The DMSO dilutions were further diluted […] into cell culture medium (IMDM, supplemented with 20% (v/v) fetal bovine serum, and 50 μg/mL gentamicin) in an intermediate dilution plate. Finally, 10 μL taken from the intermediate dilution plate were transferred to 140 μL of cells and medium per well of the final assay plate. Thus, the DMSO dilutions used for the mono- and the combination-treatment were diluted 1:660, and the DMSO concentration in the assay was […].
(§4) Tumors were passaged as subcutaneous xenografts in NMRI nu/nu mice. At a tumor volume of 400 to 1000 mm^3, tumor-bearing mice were euthanized, and tumors were collected under sterile conditions without delay. Tumors were mechanically disaggregated and subsequently incubated with an enzyme cocktail consisting of collagenase type IV (41 U/mL), DNase I (125 U/mL), hyaluronidase type III (100 U/mL), and dispase II (1 U/mL) in RPMI 1640 medium at 37° C. for 60 to 120 minutes. Cells were passed through sieves of 100 μm and 40 μm mesh size, and washed with RPMI 1640 medium. The percentage of viable cells was determined in a Neubauer-hemocytometer using trypan blue exclusion. Aliquots of the cells were frozen down and stored in liquid nitrogen vapor phase. On each day of an experiment, a frozen aliquot of tumor cells was thawed and used for preparation of assay plates.
(§5) The clonogenic assay was carried out in a 96 well plate format using ultra low attachment plates. For each test, plates were prepared as follows: each test well contained a layer of semi-solid medium with tumor cells (50 μL), and a second layer of medium supernatant with or without test compound (100 μL). The cell layer consisted of […] to 12.5×10^3 tumor cells per well, which were seeded in 50 μL/well cell culture medium (IMDM, supplemented with 20% (v/v) fetal bovine serum, 50 μg/mL gentamicin, and 0.4% (w/v) agar). After 24 hours, the soft-agar layer was covered with 90 μL of the same culture medium without agar, and 10 μL of control medium or test compound after serial dilution in DMSO for the duration of the experiment (continuous exposure, 100 μL drug overlay).

[2] = tested on: CXF1256 organoid, colon cancer; test: 3D clonogenic assay in patient derived organoids; format: cell-based, human
Protocol: as §2, §3, §4, §5

[3] = tested on: PAXF2131 organoid, Pancreatic cancer; test: 3D clonogenic assay in patient derived organoids; format: cell-based, human
Protocol: as §2, §3, §4, §5

[4] = tested on: CXF2129 organoid, colon cancer; test: 3D clonogenic assay in patient derived organoids; format: cell-based, human
Protocol: as §2, §3, §4, §5

[5] = tested on: MAXFTN449 organoid, breast cancer (triple negative); test: 3D clonogenic assay in patient derived organoids; format: cell-based, human
Protocol: as §2, §3, §4, §5

[6] = tested on: CXF2061 organoid, colon cancer; test: 3D clonogenic assay in patient derived organoids; format: cell-based, human
Protocol: as §2, §3, §4, §5

[7] = tested on: MAXFTN2990 organoid, breast cancer (triple negative); test: 3D clonogenic assay in patient derived organoids; format: cell-based, human
Protocol: as §2, §3, §4, §5

[8] = tested on: Five tumor cell lines (4T1.2, A549, EMT6, NCI-H460, and HT29)
Protocol: as §2

[9] = in the presence of 5 μM Compound 1
[10] = in the presence of 20 μM Compound 1
[11] = chemotherapy dose titration + 5 μM Compound 1 vs chemotherapy alone
[12] = chemotherapy dose titration + 20 μM Compound 1 vs chemotherapy alone

EC50 (4T1.2 cell line; 4 days after treatment, in the absence of Compound 1): 570 nM
EC50 (4T1.2 cell line; 4 days, in the presence of 5 μM Compound 1): 500 nM
EC50 (4T1.2 cell line; 4 days, in the presence of 20 μM Compound 1): 490 nM
EC50 (HT29 cell line; in the absence of Compound 1): 2500 nM
EC50 (HT29 cell line; [9]): 2500 nM
EC50 (HT29 cell line; [10]): 1600 nM
EC50 (A549 cell line; in the absence of Compound 1): 2400 nM
EC50 (A549 cell line; [9]): 2600 nM
EC50 (A549 cell line; [10]): 1500 nM
EC50 (NCI-H460 cell line; in the absence of Compound 1): 2600 nM
EC50 (NCI-H460 cell line; [9]): 1600 nM
EC50 (NCI-H460 cell line; [10]): 1700 nM
potency of 5-FU in the presence of Compound 1 relative to 5-FU potency in the absence of Compound 1 [8]: ≤ 2 fold
Compound: O=c1[nH]cc(F)c(=O)[nH]1 [Compound 5-FU, 5-Fluorouracil]
EC50 (EMT6 cell line; in the absence of Compound 1): 2700 nM
EC50 (EMT6 cell line; [9]): 2500 nM
EC50 (EMT6 cell line; [10]): 2600 nM
Combination activity 5 μM Compound 1 (cAUC % reduction) [1, 11]: 32%
Combination activity 20 μM Compound 1 (cAUC % reduction) [1, 12]: 32%
Combination activity 5 μM Compound 1 (cAUC % reduction) [2, 11]: 78%
Combination activity 20 μM Compound 1 (cAUC % reduction) [2, 12]: 79%
Combination activity 5 μM Compound 1 (cAUC % reduction) [3, 11]: 52%
Combination activity 20 μM Compound 1 (cAUC % reduction) [3, 12]: 67%
Combination activity 5 μM Compound 1 (cAUC % reduction) [4, 11]: 42%
Combination activity 20 μM Compound 1 (cAUC % reduction) [4, 12]: 31%
Combination activity 5 μM Compound 1 (cAUC % reduction) [5, 11]: 29%
Combination activity 20 μM Compound 1 (cAUC % reduction) [5, 12]: 14%
Combination activity 5 μM Compound 1 (cAUC % reduction) [6, 11]: 25%
Combination activity 20 μM Compound 1 (cAUC % reduction) [6, 12]: 18%
Combination activity 5 μM Compound 1 (cAUC % reduction) [7, 11]: −25%
Combination activity 20 μM Compound 1 (cAUC % reduction) [7, 12]: 8%
